Measured values as given in patent publication US10933132B2, “Combination of epigenetic factors and bispecific compounds targeting CD33 and CD3 in the treatment of myeloid leukemia” (AMGEN RESEARCH (MUNICH) GMBH, priority 2013, dated 2021).

What was measured:
[1] = biological target: T1, CD19 B-cell surface antigen and CD3 (Homo sapiens, UniProt P07766+P15391); conditions: patients with B-cell lymphomas and B precursor ALL; cited from earlier work
T1 construct: host or cells: patients (endogenous CD19 on B cells, CD3 epsilon on T cells)

CD33 = biological target: T2, CD33 (Homo sapiens, UniProt P20138); conditions: cited from earlier work
T2 construct: myeloid differentiation antigen found on AML blasts in most patients; host or cells: AML patients (endogenous CD33 on blasts)
T2 sequence (P20138 18-364): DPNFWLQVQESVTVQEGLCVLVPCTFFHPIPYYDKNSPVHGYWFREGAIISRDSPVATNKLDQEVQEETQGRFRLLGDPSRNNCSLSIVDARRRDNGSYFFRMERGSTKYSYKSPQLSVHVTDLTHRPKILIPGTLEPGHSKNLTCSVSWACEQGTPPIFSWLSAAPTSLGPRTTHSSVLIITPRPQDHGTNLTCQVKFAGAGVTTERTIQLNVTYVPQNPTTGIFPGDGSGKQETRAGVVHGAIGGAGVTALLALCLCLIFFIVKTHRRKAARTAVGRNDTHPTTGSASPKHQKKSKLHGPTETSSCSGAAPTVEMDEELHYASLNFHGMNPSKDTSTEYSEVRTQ

HL-60 AML cells = experiment: Hydroxyurea up-regulation of CD33 on AML cell lines, flow cytometry; assay type: cell-based; conditions: for CD33 MFI Ratio: day 3, untreated 134.9
Procedure: (§1) AML cell lines HL-60, PL21, OCI-AML3, KG1a and MV4-11 were seeded in 24-well plates at 1×10^6 cells/ml on day 0. Cells were either left untreated (UT) or treated with 10 μM (H1) or 100 μM (H2) hydroxyurea (Sigma) for three consecutive days (day 0, day 1 and day 2). On day 3, cells were harvested, counted and analyzed for changes in CD33 surface expression level by flow cytometry.

PL21 AML cells = experiment: as above; assay type: cell-based; conditions: for CD33 MFI Ratio: day 3, untreated 166.9
Procedure: as §1

primary AML cells = experiment: Hydroxyurea up-regulation of CD33 on primary AML cells, flow cytometry; assay type: cell-based
Procedure: Three primary AML samples were seeded in a 12-well plates at 1×10^6 cells/ml, as previously described (Krupka, Subklewe et. al, Blood 2014). Cells were either left untreated (UT) or treated with 10 μM (H1) or 100 μM (H2) hydroxyurea (Sigma) for three consecutive days (day 0, day 1 and day 2). On day 1-day 3, cells were harvested, counted and analyzed for changes in CD33 surface expression by flow cytometry.

KG-1a cells [2] = experiment: CD33 expression by flow cytometry (PE anti-CD33 P67.6) after pretreatment with epigenetic drug; assay type: cell-based, human; conditions: 3-day pretreatment, relative to untreated
Description: CD33 expression on parental AML cells and cell lines was quantified by flow cytometry using a phycoerythrin (PE)-conjugated anti-CD33 antibody (clone P67.6; BD Biosciences, San Jose, Calif., USA) (see Walter et al. Blood. 2005; 105(3):1295-1302).

AML cells or macrophages = conditions: incubation of AML cells or macrophages; cited from earlier work
AML target cells = conditions: co-therapy of lintuzumab and 5-azacytidine; cited from earlier work
KG-1a cells [3] = experiment: AMG 330-induced cytotoxicity with healthy donor T-cells (DAPI, 48 h) after epigenetic drug pretreatment; conditions: 3-day pretreatment, relative to untreated cells
Procedure: Parental OCI-AML3 and KG-1a cells were either left untreated or pretreated with panobinostat for 72 hours. […] 48 hours later, cell counts were determined and cytotoxicity was assessed with DAPI staining to quantify drug-specific cytotoxicity.
Parental KG-1a cells were either left untreated or pretreated with azacitidine for 72 hours. […] 48 hours later, cell counts were determined and cytotoxicity was assessed with DAPI staining to quantify drug-specific cytotoxicity.
(§2) For the experimental settings mononuclear cells were collected from healthy adult volunteers via leukapheresis, and T cells enriched through magnetic cell sorting (Pan T Cell Isolation Kit II; Miltenyi Biotec, Auburn, Calif.). Thawed cell aliquots were labeled with 3 μM CellVue Burgundy (eBioscience, San Diego, Calif.) according to the manufacturer's instructions.
(§3) For the quantification of compound induces cytotoxicity AML cells were taken during exponential growth and incubated at 37° C. […] After 48 hours, cell numbers and drug-induced cytotoxicity, using 4′,6-diamidino-2-phenylindole (DAPI) to detect non-viable cells, were determined using a LSRII flow cytometer (BD Biosciences, San Jose, Calif.) and analyzed with FlowJo (Tree Star, Ashland, Oreg.). AML cells were identified by forward/side scatter properties and negativity for CellVue Burgundy dye.

OCI-AML3 cells = experiment: as above; assay type: cell-based, human; conditions: 3-day pretreatment, relative to untreated cells
Procedure: Parental OCI-AML3 and KG-1a cells were either left untreated or pretreated with panobinostat for 72 hours. […] 48 hours later, cell counts were determined and cytotoxicity was assessed with DAPI staining to quantify drug-specific cytotoxicity. Results are shown as mean±SEM from 3 independent experiments performed in duplicate wells using a single healthy donor as source for exogenous T-cells.
as §2, §3

blinatumomab: bispecific antibody directed at CD19 and the CD3 component of the T-cell receptor complex
therapeutic efficacy [1]: therapeutic efficacy was shown

lintuzumab: intact humanized CD33 antibody
survival benefit (CD33; phase III trial, combined with a triple chemotherapy regimen): no survival benefit
clinical response (CD33; single-agent phase I and II trial): complete remission in individual patients

NC(=O)NO [hydroxyurea, Hydroxyurea]
CD33 MFI Ratio (HL-60 AML cells; HL-60, H1 = 10 μM hydroxyurea on three consecutive days): 171.3
CD33 MFI Ratio (HL-60 AML cells; HL-60, H2 = 100 μM hydroxyurea on three consecutive days): 210.0
upregulation of CD33 (in words) (HL-60 AML cells; HL-60 AML cells, 10 and 100 μM): upregulation of CD33
CD33 MFI Ratio (PL21 AML cells; PL21, H1 = 10 μM hydroxyurea on three consecutive days): 177.9
CD33 MFI Ratio (PL21 AML cells; PL21, H2 = 100 μM hydroxyurea on three consecutive days): 191.8
upregulation of CD33 (in words) (PL21 AML cells; PL21 AML cells, 10 and 100 μM): upregulation of CD33
CD33 MFI Ratio (primary AML cells; primary AML cells patient 2, day 1, H1 = 10 μM hydroxyurea, untreated 3.7): 4.2
CD33 MFI Ratio (primary AML cells; primary AML cells patient 2, day 1, H2 = 100 μM hydroxyurea, untreated 3.7): 4.5
CD33 MFI Ratio (primary AML cells; primary AML cells patient 2, day 2, H1 = 10 μM hydroxyurea, untreated 4.8): 4.2
CD33 MFI Ratio (primary AML cells; primary AML cells patient 2, day 2, H2 = 100 μM hydroxyurea, untreated 4.8): 5.1
up-regulation of CD33 in patient samples (in words) (primary AML cells; three primary AML samples, day 1 and day 2 of incubation): up-regulation of CD33 in 1 of 3 patient samples

Nc1ncn([C@@H]2O[C@H](CO)[C@@H](O)[C@H]2O)c(=O)n1 [azacitidine, 5-azacytidine]
CD33 expression (KG-1a cells [2]): significant increase
CD33 expression (AML cells or macrophages): did not affect
lintuzumab-mediated ADCC (AML target cells): improved

Cc1[nH]c2ccccc2c1CCNCc1ccc(/C=C/C(=O)NO)cc1 [panobinostat]
sensitivity to AMG 330-induced cytotoxicity (KG-1a cells [3]): modestly more sensitive
sensitivity to AMG 330-induced cytotoxicity (OCI-AML3 cells): modestly more sensitive
